The source of these data is patent publication US20080280810A1, “PEPTIDES HAVING AFFINITY FOR BODY SURFACES” (priority 2006, published 2008).

Holding throughout (set-up): species or system human
Test [1] is described as follows: Color retention after shampoo treatment, peptide as sealant with Acid Red 33 dye. Particulars: 0.50 wt % Acid Red 33, peptide 0.25 wt %, 30 min contact, after one shampoo treatment; vs uncolored hair; larger = better color retention; dye alone 19.63. Here is the method: The peptides used in this Example were prepared as described in Examples 1-3. The color retention was quantified using a spectrophotometric measurement technique.
A peptide given as SEQ ID NO:41, SEQ ID NO:42, or SEQ ID NO:43 (38 mg), produced via fermentation as described in Examples 1-3, was added to 15 g of an aqueous 0.50 wt % solution of Acid Red 33 (Abbey Color, Philadelphia, Pa.) and the solution was allowed to stir for 1 h. A natural white hair tress (1 cm wide, potted, International Hair Importers & Products Inc., Bellerose, N.Y.) was inserted into a 15 mm×125 mm test tube and 13 mL of the peptide/dye mixture was injected into the test tube. The hair tress was immersed in contact with the colorant solution for 30 min and the colorant solution was agitated using a magnetic stirrer. The tress was removed, allowed to drip dry, and then air dried for 30 min.
The hair tress was then subjected to a water rinse using copious amounts of deionized water, followed by a shampoo treatment with embrocation for 30 seconds. The shampoo treatment involved the application of Pantene Pro-V Sheer Volume shampoo (Proctor & Gamble, Cincinnati, Ohio) to the hair as follows. A quarter-sized drop of the shampoo was distributed evenly over the hair tress and then was massaged aggressively into the hair for 30 sec, after which the hair tress was rinsed with water to remove the shampoo. The hair tress was then dried at room temperature. The entire procedure described above was repeated without the addition of the hair-binding peptide to serve as a control.
The color intensity after the shampoo treatment was measured using an X-Rite® SP78™ Sphere Spectrophotometer (X-Rite, Inc., Grandville, Mich.), by placing the colored hair sample into the photosensor and calculating L*, a* and b* parameters representing the photometer response. An initial baseline L* value was measured for the uncolored hair and all measurements were the average of three individual determinations. Delta E values were calculated using equation 1 below: […]

Test [2] is described as follows: Color retention after shampoo treatment, peptide as sealant with Basic Red 2 dye. As to conditions: 0.25 wt % Basic Red 2, peptide 0.25 wt %, 60 min contact, after 10 shampoo treatments; dye alone 29.70. Here is the method:
(§1) The peptides used in this Example were prepared as described in Examples 1 and 2. The color retention was quantified using a spectrophotometric measurement technique. A peptide given as SEQ ID NO:41 or SEQ ID NO:42 (38 mg), produced via fermentation as described in Examples 1 and 2, was added to 15 g of an aqueous 0.25 wt % solution of Basic Red 2 (Abbey Color, Philadelphia, Pa.) and the solution was allowed to stir for 1 h. A natural white hair tress (1 cm wide, potted, International Hair Importers & Products Inc., Bellerose, N.Y.) was inserted into a 15 mm×125 mm test tube and 13 mL of the peptide/dye mixture was injected into the test tube. The hair tress was immersed in contact with the colorant solution for 60 min and the colorant solution was agitated using a magnetic stirrer. The tress was removed, allowed to drip dry, and then air dried for 30 min. The hair tress was then subjected to a water rinse using copious amounts of deionized water, followed by a shampoo treatment with embrocation for 30 seconds. The shampoo treatment involved the application of Pantene Pro-V Sheer Volume shampoo (Proctor & Gamble, Cincinnati, Ohio) to the hair as follows. […] The color intensity after the shampoo was measured as described in Examples 4-7.

A short description of test [3]: Color retention after shampoo treatment, peptide as sealant with HC Blue 26 dye. Particulars: 0.50 wt % HC Blue 26, peptide 0.25 wt %, 90 min contact, after 6 shampoo treatments; dye alone 25.75. As to the method:
as §1, with “0.50” for “0.25”, “HC Blue 26 (Aldrich)” for “Basic Red 2 (Abbey Color, Philadelphia, Pa.)”, “90” for “60”

For the substance “P-TPPELLHGAPRS-KRKRK-D (PTPPELLHGAPRSKRKRKD; Peptide having affinity for hair) [HC 71]”, the “Delta E” value in test [1] was 25.80; in test [2], 32.36; in test [3], 27.83.
The corresponding values for “P-EQISGSLVAAPW-KRKRK-D (PEQISGSLVAAPWKRKRKD; Peptide having affinity for hair) [HC 74]” are 28.68, 33.64 and 30.36.
